Key:
[1] = tested on: TR/CAR chimera; assay: Cotransfection of TR/CAR chimera with T3RE reporter, effect of added ligands; assay type: cell-based, human; settings: JEG3 cells, charcoal-treated serum
From the text: To study the function of the putative ligand binding domain of the orphan, a chimeric receptor consisting of the C-terminal D, E and F domains of CAR (i.e., approximately amino acids 76-172, 173-319, and 320-348 of the CAR sequence, respectively) fused to the N-terminal A/B and C domains of TRβ was generated (termed TR/CAR), along with a control hybrid with the A/B and C domains of TR and the D, E and F domain of the glucocorticoid receptor (TR/GR). Vectors expressing these chimeras or the intact TR were cotransfected into JEG3 cells (ATCC Accession No: HTB 36) with reporter plasmids containing T3REs (i.e., of sequence […]; SEQ ID NO: 3) or GREs (from the MMTV promoter as described in Chandler et al., Cell 33:489, 1989) upstream of a reporter gene whose expression could be assayed. Transfections were carried out in the presence of serum treated with activated charcoal to remove T3 as well as other low molecular weight hydrophobic compounds that could act as CAR ligands.

[2] = molecular target: T1, CAR (Homo sapiens, UniProt Q14994); assay: Activation of the RARβ element by CAR in cotransfections, effect of protein kinase A/C pathway treatments; assay type: cell-based; settings: cotransfection
T1 construct: expressed in transfected cells
T1 sequence (Q14994 1-348 isoform Q14994-2): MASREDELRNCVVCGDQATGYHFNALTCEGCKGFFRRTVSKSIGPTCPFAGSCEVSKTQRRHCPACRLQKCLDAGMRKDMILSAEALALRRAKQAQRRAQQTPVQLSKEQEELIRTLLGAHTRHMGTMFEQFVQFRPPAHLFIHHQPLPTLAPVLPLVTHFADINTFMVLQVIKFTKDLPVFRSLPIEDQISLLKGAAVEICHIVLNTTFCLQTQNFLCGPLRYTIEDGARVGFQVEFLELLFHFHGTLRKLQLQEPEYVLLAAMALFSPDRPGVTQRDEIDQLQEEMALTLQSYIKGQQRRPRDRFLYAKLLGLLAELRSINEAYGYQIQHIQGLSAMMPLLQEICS
From the text: Based on the constitutive activity of the TR/CAR chimera and the similarity of the DNA binding domain of CAR to other members of the superfamily, a number of response elements were screened for activation by the intact orphan in standard cotransfections. […] However, CAR did transactivate two wild type elements, the RAREs from the RARβ gene and the alcohol dehydrogenase (ADH) gene (i.e., […]; SEQ ID NO: 5). RAREs which were not transactivated by CAR included a potent up mutant version of the rat growth hormone gene T3RE/RARE (i.e., of sequence […]; SEQ ID NO:6; in tandem copies with the second copy inverted; described in Brent et al., Mol. Endocrinol. 3:1996, 1989) and the wild type version of the laminin T3RE/RARE (i.e., of sequence […]; SEQ ID NO: 8).
The activation of the RARβ element by CAR is not affected by several treatments that activate or inactivate signal transduction pathways mediated by protein kinases A or C. Thus, CAR activation was not altered by addition of dibutyryl cyclic AMP, by short or long term treatments with phorbol esters, or by cotransfections with vectors expressing the specific protein kinase A inhibitor peptide.

[3] = tested on: βRARE; assay: Transactivation of βRARE-TK luciferase reporter in cotransfected HepG2 cells; assay type: cell-based, human; settings: various cell types and conditions, no added ligand
From the text: To determine whether mCAR1 transactivated the βRARE in the absence of retinoids or any other exogenously added ligands, this construct was cotransfected with a luciferase reporter plasmid in which 3 copies of the βRARE were inserted upstream of the TK promoter. To carry out these experiments, HepG2 cells were maintained and transfected using calcium phosphate or DEAE dextran (Ausubel et al., Current Protocols in Molecular Biology, Greene Pub. Assoc.: New York, 1997). mCAR1 and mCAR2 expression vectors were generated by inserting appropriate fragments into the vector CDM8 (Seed, Nature 329:840-842, 1987), as previously described for hCAR. The luciferase reporter plasmid (Gulick et al., Proc. Natl. Acad. Sci. USA 91:11012-11016, 1994) contained three copies of the βRARE upstream of the TK promoter. The reporter plasmids with wild type and mutant versions of the RARβ2 promoter have been described (Moghal et al., Mol. Cell. Biol. 15:3945-3959, 1995). […]
For the TK reporter, pairs of 30 mm dishes were each transfected with 2 μg of reporter and pTKGH, and a total of 2 μg of mammalian expression vector. […] Transfections were carried out in media containing 10% charcoal stripped serum, and luciferase activity was determined using the Promega luciferase assay system as described by the manufacturer. […]

[4] = molecular target: RAR + RXR (UniProt P10276;P19793 P10276:1-462,P19793:1-462); assay: EMSA; settings: chain copies: heterodimer (stated)
RAR + RXR, sequence (P10276 whole entry, chain 1 of 2): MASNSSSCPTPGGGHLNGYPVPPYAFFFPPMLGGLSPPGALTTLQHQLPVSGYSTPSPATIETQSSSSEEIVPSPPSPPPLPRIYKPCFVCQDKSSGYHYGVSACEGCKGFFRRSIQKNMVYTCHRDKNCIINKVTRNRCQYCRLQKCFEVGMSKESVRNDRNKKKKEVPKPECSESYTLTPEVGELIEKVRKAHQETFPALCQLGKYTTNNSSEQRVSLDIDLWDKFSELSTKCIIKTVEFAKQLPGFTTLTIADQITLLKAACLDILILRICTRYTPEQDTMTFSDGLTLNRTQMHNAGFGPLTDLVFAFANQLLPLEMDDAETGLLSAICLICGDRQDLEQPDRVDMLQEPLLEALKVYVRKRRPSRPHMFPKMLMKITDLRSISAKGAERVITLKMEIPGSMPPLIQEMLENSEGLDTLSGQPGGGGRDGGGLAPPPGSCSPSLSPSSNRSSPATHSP
RAR + RXR, sequence (P19793 whole entry, chain 2 of 2): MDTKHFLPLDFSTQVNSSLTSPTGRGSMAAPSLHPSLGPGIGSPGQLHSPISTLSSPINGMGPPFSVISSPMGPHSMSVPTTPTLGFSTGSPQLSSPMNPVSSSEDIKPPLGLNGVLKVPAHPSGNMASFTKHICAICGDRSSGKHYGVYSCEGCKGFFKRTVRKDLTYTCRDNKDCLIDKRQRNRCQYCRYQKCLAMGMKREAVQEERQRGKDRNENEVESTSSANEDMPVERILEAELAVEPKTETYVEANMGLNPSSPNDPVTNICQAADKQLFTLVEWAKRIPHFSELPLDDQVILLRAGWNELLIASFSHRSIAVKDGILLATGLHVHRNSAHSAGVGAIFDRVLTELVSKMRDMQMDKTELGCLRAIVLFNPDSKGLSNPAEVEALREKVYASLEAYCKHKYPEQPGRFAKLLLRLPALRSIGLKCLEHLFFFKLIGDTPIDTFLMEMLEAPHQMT
From the text: (§1) FIG. 7 is a photograph showing DNA binding by mCAR1 and mCAR2. mCAR1, mCAR2, RXR, and RAR proteins were expressed by in vitro translation and used for electrophoretic mobility shift assays with a βRARE probe as indicated. "S" indicates competition with the βRARE oligonucleotide, and "NS" competition with a nonspecific oligonucleotide. Equivalent amounts of mCAR1, mCAR2, and RAR were used in the binding reactions, as determined by ^35S-methionine labeling.
(§2) For DNA binding studies, mCAR1, mCAR2, RAR, and RXR proteins were expressed using coupled in vitro transcription and translation (Promega, Inc.). Standard conditions were used for electrophoretic mobility shift assays with the DR-5 response element from the RARβ2 promoter (the βRARE) as the probe, as described for hCAR (MB67). In these experiments, mCAR1/RXR heterodimers bound with high affinity to the RARE from the RARβ2 isoform promoter (Sucov et al., Proc. Natl. Acad. Sci. USA 87:5392–5396, 1990; de The et al., Nature 343:177–180, 1990) (FIG. 7). […] This lack of mCAR2 binding was consistent with the absence of the C-terminal portion of the ligand/dimerization domain, which is essential for heterodimerization.

[5] = molecular target: mCAR2 + RXR (Mus musculus, UniProt O35627-2;P19793 O35627-2:1-286,P19793:1-462); assay: EMSA; with RXR
mCAR2 + RXR, sequence (P19793 whole entry, one chain of several): as the sequence (P19793 whole entry, chain 2 of 2) above
From the text: as §1, §2

[6] = molecular target: mCAR1 + RXR (Mus musculus, UniProt O35627;P19793 O35627:1-358,P19793:1-462); assay: EMSA; high affinity; indistinguishable from RAR/RXR; settings: chain copies: heterodimer (stated)
mCAR1 + RXR, sequence (P19793 whole entry, one chain of several): as the sequence (P19793 whole entry, chain 2 of 2) above
From the text: as §1, §2

[7] = molecular target: T2, mCAR2 (splice variant lacking exon 8, 107 bp out-of-frame deletion; 6 new residues replace last 78 of mCAR1) (Mus musculus, UniProt O35627-2 O35627-2:1-286); assay: EMSA; alone; settings: tags: GenBank variant of mCAR1
T2 sequence: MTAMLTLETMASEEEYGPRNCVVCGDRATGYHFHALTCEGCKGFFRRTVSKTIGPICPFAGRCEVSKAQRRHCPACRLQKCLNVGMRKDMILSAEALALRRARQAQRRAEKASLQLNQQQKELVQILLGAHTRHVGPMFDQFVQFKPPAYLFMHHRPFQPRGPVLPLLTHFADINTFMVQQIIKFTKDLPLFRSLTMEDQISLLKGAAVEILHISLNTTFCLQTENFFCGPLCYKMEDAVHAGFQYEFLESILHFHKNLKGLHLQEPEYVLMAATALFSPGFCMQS
From the text: as §1, §2

C[C@]12CC[C@@H]3c4ccc(O)cc4CC[C@H]3[C@@H]1CC[C@@H]2O [astraddle]
effect of added ligand on ligand-independent activation of T3RE reporter by TR/CAR chimera [1]: not altered

C[C@]12CC[C@H]3[C@@H](CCC4=CC(=O)CC[C@@]43C)[C@@H]1CC[C@@H]2O [testosterone]
effect of added ligand on ligand-independent activation of T3RE reporter by TR/CAR chimera [1]: not altered

CC1=C(/C=C/C(C)=C/C=C/C(C)=C/C(=O)O)C(C)(C)CCC1 [resinoid acid]
effect of added ligand on ligand-independent activation of T3RE reporter by TR/CAR chimera [1]: not altered

C[C@H](CCCC(C)(C)O)[C@H]1CC[C@H]2[C@@H]3CC=C4C[C@@H](O)CC[C@]4(C)[C@H]3CC[C@]12C [25-hydroxy cholesterol]
effect of added ligand on ligand-independent activation of T3RE reporter by TR/CAR chimera [1]: not altered

N[C@@H](Cc1cc(I)c(Oc2ccc(O)c(I)c2)c(I)c1)C(=O)O [T3]
effect of added ligand on ligand-independent activation of T3RE reporter by TR/CAR chimera [1]: not altered

CCCC(=O)Nc1ncnc2c1ncn2[C@@H]1O[C@@H]2COP(=O)(O)O[C@H]2[C@H]1OC(=O)CCC [dibutyryl cyclic AMP]
effect on CAR activation of the RARβ element [2]: not altered

B1: hCAR: human CAR receptor, 348 amino acids, SEQ ID NO:10 (protein, listed as Homo sapiens)
chain: MASREDELRNCVVCGDQATGYHFNALTCEGCKGFFRRTVSKSIGPTCPFAGSCEVSKTQRRHCPACRLQKCLDAGMRKDMILSAEALALRRAKQAQRRAQQTPVQLSKEQEELIRTLLGAHTRHMGTMFEQFVQFRPPAHLFIHHQPLPTLAPVLPLVTHFADINTFMVLQVIKFTKDLPVFRSLPIEDQISLLKGAAVEICHIVLNTTFCLQTQNFLCGPLRYTIEDGARVGFQVEFLELLFHFHGTLRKLQLQEPEYVLLAAMALFSPDRPGVTQRDEIDQLQEEMALTLQSYIKGQQRRPRDRFLYAKLLGLLAELRSINEAYGYQIQHIQGLSAMMPLLQEICS
transactivation of βRARE reporter [3]: 20-100 fold

B2: betaRARE (RARbeta2 promoter DR-5) (dsDNA)
DNA 1: GGGTAGGGTTCACCGAAAGTTCACTCG
DNA 2: CGAGTGAACTTTCGGTGAACCCTACCC
binding result [4]: binds
binding result [5]: no binding
binding result [6]: binds
binding result [7]: no binding
